Results from US11472788B2, “Benzoimidazoles as selective inhibitors of indoleamine 2,3-dioxygenases” (BEIGENE, LTD., priority 2017, dated 2022).

What follows are molecules tested against cellular IDO1 in HeLa cells (Homo sapiens (Human), UniProt P14902) (assay: HeLa Cell-Based IDO1 Kyn (Kynurenine) Production Assay). Conditions: IFN-γ induced IDO1, 48 hours incubation, Kyn absorbance at 480 nm.
Method: HeLa Cell-Based IDO1 Kyn (Kynurenine) Production Assay:
The inhibitory activity of IDO1 inhibitors is determined by using a colorimetric reaction to measure Kyn generated from L-Trp (L-Tryptophon) oxidation by cellular IDO1 in HeLa cells after induction of IDO1 expression by IFN-γ.
Hela cells were obtained from the American Type Culture Collection and recovered in 10% FBS-containing phenol red-free DMEM medium. Cells were plated onto a 96-well plate (100 μl/well) at 8000 cells per well and kept at 37° C. in a humidified incubator supplied with 5% CO2. 4 hours later, Human recombinant IFN-γ (8901SC, CST) was added to cells (final concentration 100 ng/mL) to stimulate endogenous IDOL. Compounds at different concentrations diluted in dimethylsulfoxide (DMSO) were added simultaneously with IFN-γ and 0.4 mM L-Trp. Cells were kept at 37° C. in a humidified incubator supplied with 5% CO2. After 48 hours of incubation, 100 μl supernatant from each well was removed to a new plate. The protein in the medium was precipitated with the addition of 8 μl 6N trichloroacetic acid. The plate was incubated at 60° C. for 30 minutes and then centrifugation at 2500 rpm for 10 minutes to remove sediments. 80 μl supernatants were carefully removed to a new clean plate and added with an equal volume of 2% 4-(Dimethylamino)benzaldehyde (D2004, sigma) dissolved in glacial acetic acid. The absorbance at 480 nm wavelength derived from Kyn was measured using a PHERAstar FS plate reader (BMG LABTECH). The IC5C for each compound was derived from fitting the dose-response data to the four-parameter logistic model by using XLfit software (IDBS).

Chain of cellular IDO1 in HeLa cells (P14902 whole entry): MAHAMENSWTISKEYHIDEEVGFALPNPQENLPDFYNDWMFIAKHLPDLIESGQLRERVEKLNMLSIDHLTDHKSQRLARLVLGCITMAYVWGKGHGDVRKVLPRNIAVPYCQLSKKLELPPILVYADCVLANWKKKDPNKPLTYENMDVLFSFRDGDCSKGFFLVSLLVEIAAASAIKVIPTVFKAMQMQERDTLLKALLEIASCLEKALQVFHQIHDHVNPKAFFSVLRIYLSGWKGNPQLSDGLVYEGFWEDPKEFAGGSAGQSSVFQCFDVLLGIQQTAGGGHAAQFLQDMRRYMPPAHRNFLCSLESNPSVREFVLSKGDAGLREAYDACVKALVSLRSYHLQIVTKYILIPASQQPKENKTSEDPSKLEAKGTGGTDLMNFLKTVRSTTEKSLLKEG

Compared with COC(=O)c1cc2nc(C(C)[C@H]3CC[C@@H](c4ccnc5ccc(F)cc54)CC3)[nH]c2c(F)c1F (some centres unmarked) [B213], COC(=O)c1cc(C)c2[nH]c(C(C)C3CCC(c4ccnc5ccc(F)cc45)CC3)nc2c1 (centres unmarked) [B177] is 3.8-fold higher in EC50: 1.8 nM for the first, 6.9 nM for the second.

Going from Clc1ccc2nc(C3CC4CC3CC4c3ccccc3)[nH]c2c1 (centres unmarked) [Example D1, 6-chloro-2-(5-phenylbicyclo[2.2.1]heptan-2-yl)-1H-benzo[d]imidazole] to Clc1ccc2[nH]c(C3C4CCC(c5ccccc5)CC43)nc2c1 (centres unmarked) [Example A36, 5-chloro-2-(3-phenylbicyclo[4.1.0]heptan-7-yl)-1H-benzo[d]imidazole], the EC50 rises from 1090 nM to 1670 nM (1.5-fold). The first is the more potent here.

First: CC(c1nc2cc(F)c(F)c(Cl)c2[nH]1)[C@H]1CC[C@@H](c2ccnc3ccc(F)cc32)CC1 (some centres unmarked) [Example B203, 4-((1s,4s)-4-(1-(7-chloro-5,6-difluoro-1H-benzo[d]imidazol-2-yl)ethyl)cyclohexyl)-6-fluoroquinoline]
Second: CC(c1nc2c(F)c(F)cc(Cl)c2[nH]1)[C@H]1CC[C@@H](c2ccnc3ccc(F)cc32)CC1 (some centres unmarked) [Example B172, 4-((1s,4s)-4-(1-(7-chloro-4,5-difluoro-1H-benzo[d]imidazol-2-yl)ethyl)cyclohexyl)-6-fluoroquinoline]
The EC50 of the first is 1.9-fold lower: 8.8 nM for the first, 16.4 nM for the second.

First: C[C@@H](c1nc2cc(-c3ccccc3)c(F)cc2[nH]1)[C@H]1CC[C@@H](c2ccnc3ccc(F)cc32)CC1 [B218]
Second: C[C@@H](c1nc2cc3ccccc3cc2[nH]1)[C@H]1CC[C@@H](c2ccnc3ccc(F)cc32)CC1 [Example B173, 2-((R)-1-((1s,4S)-4-(6-fluoroquinolin-4-yl)cyclohexyl)ethyl)-1H-naphtho[2,3-d]imidazole]
The EC50 of the first is 7.1-fold lower: 1.8 nM for the first, 12.7 nM for the second. The first is the more potent here.

Going from C[C@@H](c1nc2c(F)cc(F)c(F)c2[nH]1)[C@H]1CC[C@@H](c2ccnc3ccc(F)cc32)CC1 [Example B5, 6-fluoro-4-((1S,4s)-4-((R)-1-(4,6,7-trifluoro-1H-benzo[d]imidazol-2-yl)ethyl)cyclohexyl)quinoline] to C[C@@H](c1nc2c(Cl)c(F)cc(F)c2[nH]1)[C@H]1CC[C@@H](c2ccnc3ccc(F)cc32)CC1 [Example B123, 4-((1S,4s)-4-((R)-1-(4-chloro-5,7-difluoro-1H-benzo[d]imidazol-2-yl)ethyl)cyclohexyl)-6-fluoroquinoline], the EC50 rises from 1.4 nM to 6.79 nM (4.9-fold).

Fc1ccc2nccc([C@H]3CC[C@H](Cc4nc5cc(C(F)(F)F)ccc5[nH]4)CC3)c2c1 [Example A3a, 6-fluoro-4-((1s,4s)-4-((5-(trifluoromethyl)-1H-benzo[d]imidazol-2-yl)methyl)cyclohexyl)quinoline] and Fc1ccc2nccc([C@H]3CC[C@@H](Cc4nc5cc(OC6CC6)ccc5[nH]4)CC3)c2c1 [Example A8b, 4-((1s,4s)-4-((5-cyclopropoxy-1H-benzo[d]imidazol-2-yl)methyl)cyclohexyl)-6-fluoroquinoline] are within 1.5-fold of each other in EC50: 72 nM for the first, 50 nM for the second.

Going from CC(c1nc2c(ccc3ncccc32)[nH]1)[C@H]1CC[C@@H](c2ccnc3ccc(F)cc32)CC1 (some centres unmarked) [B150] to C[C@H](c1nc2c(ccc3ccccc32)[nH]1)[C@H]1CC[C@@H](c2ccnc3ccc(F)cc32)CC1 [Example B211, 2-((S)-1-((1s,4R)-4-(6-fluoroquinolin-4-yl)cyclohexyl)ethyl)-3H-naphtho[1,2-d]imidazole], the EC50 falls from 10.9 nM to 1.3 nM (8.4-fold). The second is the more potent here.

First: Cc1c(Br)ccc2[nH]c(C[C@H]3CC[C@@H](c4ccnc5ccc(F)cc54)CC3)nc12 [Example A11b, 4-((1s,4s)-4-((5-bromo-4-methyl-1H-benzo[d]imidazol-2-yl)methyl)cyclohexyl)-6-fluoroquinoline]
Second: Cc1c(Br)ccc2[nH]c(C[C@H]3CC[C@H](c4ccnc5ccc(F)cc54)CC3)nc12 [Example A11a, 4-((1r,4r)-4-((5-bromo-4-methyl-1H-benzo[d]imidazol-2-yl)methyl)cyclohexyl)-6-fluoroquinoline]
The EC50 of the first is 9.6-fold lower: 14 nM for the first, 135 nM for the second.

Compared with C[C@@H](c1nc2cc(-c3ncccn3)ccc2[nH]1)[C@H]1CC[C@@H](c2ccnc3ccc(F)cc32)CC1 [Example B157, 6-fluoro-4-((1S,4s)-4-((R)-1-(5-(pyrimidin-2-yl)-1H-benzo[d]imidazol-2-yl)ethyl)cyclohexyl)quinoline], COC(=O)c1ccc2[nH]c(C(C)C3CCC(c4ccnc5ccc(F)cc45)CC3)nc2c1 (centres unmarked) [Example B3, methyl 2-(1-(4-(6-fluoroquinolin-4-yl)cyclohexyl)ethyl)-1H-benzo[d]imidazole-5-carboxylate] is 2.9-fold lower in EC50: 3.8 nM for the first, 1.3 nM for the second. The second is the more potent here.

Going from Fc1ccc2nccc([C@H]3CC[C@H](Cc4nc5cc6c(cc5[nH]4)OCO6)CC3)c2c1 [Example A7a, 6-(((1r,4r)-4-(6-fluoroquinolin-4-yl)cyclohexyl)methyl)-5H-[1,3]dioxolo[4′,5′:4,5]benzo[1,2-d]imidazole] to Fc1ccc2nccc([C@H]3CC[C@H](c4nc5cc(F)c(F)cc5[nH]4)CC3)c2c1 [Example C7a, 4-((1r,4r)-4-(5,6-difluoro-1H-benzo[d]imidazol-2-yl)cyclohexyl)-6-fluoroquinoline], the EC50 rises from 87 nM to 1360 nM (16-fold). The first is the more potent here.

First: Cc1cc(C(=O)NC2CCC2)cc2nc([C@H](C)[C@H]3CC[C@@H](c4ccnc5ccc(F)cc54)CC3)[nH]c12 [B187]
Second: CC(c1nc2ccc(C(=O)NC3CCC3)cc2[nH]1)[C@H]1CC[C@@H](c2ccnc3ccc(F)cc32)CC1 (some centres unmarked) [Example B164, N-cyclobutyl-2-(1-((1s,4s)-4-(6-fluoroquinolin-4-yl)cyclohexyl)ethyl)-1H-benzo[d]imidazole-6-carboxamide]
The EC50 of the first is 2.9-fold higher: 17.1 nM for the first, 5.8 nM for the second. The second is the more potent here.

Cc1noc(-c2ccc3nc([C@H](C)[C@H]4CC[C@@H](c5ccnc6ccc(F)cc65)CC4)[nH]c3c2)n1 [Example B220, 5-(2-((R)-1-((1s,4S)-4-(6-fluoroquinolin-4-yl)cyclohexyl)ethyl)-1H-benzo[d]imidazol-6-yl)-3-methyl-1,2,4-oxadiazole] and Cc1noc(-c2ccc3nc([C@@H](C)[C@H]4CC[C@@H](c5ccnc6ccc(F)cc65)CC4)[nH]c3c2)n1 [B149] are the same in EC50: 0.96 nM for the first, 0.96 nM for the second.

First: Fc1cc2nc(C[C@H]3CC[C@H](c4ccc(F)c5ncccc54)CC3)[nH]c2cc1F [Example A26a, 5-((1r,4r)-4-((5,6-difluoro-1H-benzo[d]imidazol-2-yl)methyl)cyclohexyl)-8-fluoroquinoline]
Second: Fc1ccc(C2CCC(Cc3nc4cc(C5CC5)ccc4[nH]3)CC2)c2cccnc12 (centres unmarked) [Example A25, 5-(4-((5-cyclopropyl-1H-benzo[d]imidazol-2-yl)methyl)cyclohexyl)-8-fluoroquinoline]
The EC50 of the first is 1.7-fold higher: 466 nM for the first, 268 nM for the second. The second is the more potent here.

Going from CC(=O)c1ccc2nc([C@H](C)[C@H]3CC[C@@H](c4ccnc5ccc(F)cc54)CC3)[nH]c2c1 [Example B202, 1-(2-((R)-1-((1s,4S)-4-(6-fluoroquinolin-4-yl)cyclohexyl)ethyl)-1H-benzo[d]imidazol-6-yl)ethan-1-one] to CC(c1nc2ccc(S(C)(=O)=O)cc2[nH]1)[C@H]1CC[C@@H](c2ccnc3ccc(F)cc32)CC1 (some centres unmarked) [Example B167, 6-fluoro-4-((1s,4s)-4-(1-(6-(methylsulfonyl)-1H-benzo[d]imidazol-2-yl)ethyl)cyclohexyl)quinoline], the EC50 rises from 2.9 nM to 18.8 nM (6.5-fold). The first is the more potent here.

First: COC(=O)c1c(F)ccc2[nH]c([C@@H](C)[C@H]3CC[C@@H](c4ccnc5ccc(F)cc54)CC3)nc12 [Example B198, methyl 5-fluoro-2-((S)-1-((1s,4R)-4-(6-fluoroquinolin-4-yl)cyclohexyl)ethyl)-1H-benzo[d]imidazole-4-carboxylate]
Second: C[C@@H](c1nc2cc(Cl)c(F)cc2[nH]1)[C@H]1CC[C@@H](c2ccnc3ccc(F)cc32)CC1 [Example B2, 4-((1S,4s)-4-((R)-1-(5-chloro-6-fluoro-1H-benzo[d]imidazol-2-yl)ethyl)cyclohexyl)-6-fluoroquinoline]
The EC50 of the first is 1000-fold higher: 984 nM for the first, 0.95 nM for the second.

Compared with C[C@@H](c1nc2ccc(NS(C)(=O)=O)cc2[nH]1)[C@H]1CC[C@@H](c2ccnc3ccc(F)cc32)CC1 [Example B180, N-(2-((R)-1-((1r,4R)-4-(6-fluoroquinolin-4-yl)cyclohexyl)ethyl)-1H-benzo[d]imidazol-6-yl)methanesulfonamide], Fc1ccc2nccc([C@H]3CC[C@@H](c4nc5cc(F)c(F)cc5[nH]4)CC3)c2c1 [Example C7b, 4-((1s,4s)-4-(5,6-difluoro-H-benzo[d]imidazol-2-yl)cyclohexyl)-6-fluoroquinoline] is 5.5-fold lower in EC50: 384 nM for the first, 70 nM for the second. The second is the more potent here.

Going from c1ccc(C2CCC(Cc3nc4cc(C5CC5)ccc4[nH]3)CC2)cc1 (centres unmarked) [Example A31, 5-cyclopropyl-2-((4-phenylcyclohexyl)methyl)-1H-benzo[d]imidazole] to Clc1ccc2[nH]c(CC3CCC(c4ccncc4)CC3)nc2c1 (centres unmarked) [Example A28, 5-chloro-2-((4-(pyridin-4-yl)cyclohexyl)methyl)-1H-benzo[d]imidazole], the EC50 rises from 115 nM to 1810 nM (16-fold). The first is the more potent here.

C[C@H](c1nc2ccc(Cl)cc2[nH]1)C1CCC(c2cnc3ccccc3c2)CC1 (stereo partly drawn) [Example B25a, (S)-3-(4-(1-(6-chloro-1H-benzo[d]imidazol-2-yl)ethyl)cyclohexyl)quinoline] showed an EC50 of 5.1 nM.
